Experimental data as given in patent publication US12162850B2, “Formulations” (Betagenon AB, priority 2019, dated 2024).

What was measured:
[1] = Particle size analysis of dry-milled products (laser diffraction, Shimadzu SALD-2300); assay type: physicochemical
Procedure: Milling was performed for Examples 1a to 1c using an air jet mill (Equipment code: CP-AJM-01; Promas engineers) with the following parameters: Micronisation was repeated in all examples by performing the air jet milling for a second time using the same parameters. This allowed the particle size D90 to be reduced to less than 10 μm. [table] Four drops of Tween 20 were added to 25 mL of water and the mixture was sonicated for 3 minutes to form the dispersant solution. 0.05 g of milled material was transferred into a 250 mL glass beaker. 25 mL of the dispersant solution (Tween 20/water mixture) was added to the beaker with continuous swirling for 2 to 3 minutes. The suspension was transferred into the measuring unit and the particle size distribution measurements were conducted in triplicate.

[2] = Single dose oral pharmacokinetic studies in rabbits; assay type: in vivo, male New Zealand White rabbits; conditions: for Plasma concentration, mean: 90 mg/kg b.w. oral; for Cmax / MRT last / Tmax / AUC(0-t) / AUC(0-inf) / half-life: male, New Zealand White, plasma, po
Procedure: The studies detailed below (and referred to as Examples 2 to 8) were conducted to provide comparative single dose oral pharmacokinetics data for Compound 1, as well as sodium and potassium salts of that compound, using non-coated and enteric-coated capsules in male New Zealand White rabbits.
Compound 1 was made using the process described in WO 2011/004162 and milled as described for Example 1c. The non-coated or enteric coated gelatin capsules were individually filled with 180 mg of dry-milled Compound 1 together with accompanying excipients as indicated. Both capsule types were filled with Compound 1 together with 1.8 mg of sodium docusate, 0.18 mg of PVP K30 and 9 mg of mannitol.
Similarly, Compound 2, non-coated or enteric coated gelatin capsules were individually filled with 180 mg of dry-milled Compound 2 (as obtained in Example 1f) together with 1.8 mg of sodium docusate, 0.18 mg of PVP K30 and 9 mg of mannitol.
For Compound 3, non-coated or enteric coated gelatin capsules were individually filled with 90 mg of dry-milled Compound 3 (as obtained in Example 1i) together with 0.90 mg of sodium docusate, 0.09 mg of PVP K30 and 4.50 mg of mannitol.
40 mL of the 2% w/v methyl cellulose solution was added to a 250 mL conical flask together with 10 g of 2 mm glass beads, and vigorously stirred. Compound 1 (720 mg) was slowly added to the solution and the mixture was with continuously stirred for 1 h. The homogenate was transferred to separate flask and its pH recorded. The suspension formulation was prepared before administration to the animals.
Adult healthy male New Zealand white rabbits aged approximately 2 to 3 months old were used for experimentation after 7 days of acclimatization.
To dose the filled capsules, a soft plastic dosing tube was used. The filled capsule was inserted into the dosing tube so that the short end of the capsule protrudes slightly from the tip of the tube. The tip of the capsule was dipped in mineral oil to aid swallowing.
To dose the suspension, an infant feeding tube was used. The feeding tube was inserted through the mouth of the rabbit to the oesophagus and the stomach, and ascertained that it has not been placed in the trachea before dosing to the animals. The suspension of the Compound 1 was administered through the feeding tube. After the administration of the suspension, drinking water of approximately 2.0-2.5 mL was administered to flush out the contents in the feeding tube.
The animals were restrained in a rabbit restrainer and blood samples (400-500 μL/time point) were collected via the central ear artery at 0.16, 0.25, 0.50, 1.0, 2.0, 4.0, 6.0, 8.0, 24.0, 48.0 and 72 hours post-dosing. Collected blood specimens were centrifuged at 4000 or 6000 rpm, 4° C. for 10 minutes and plasma samples were separated and stored at −80° C. until analysis.
Concentrations of the analyte of Compound 1 in New Zealand white rabbits was determined using an API 3200 Q-trap LC-MS/MS system.
Chromatographic separation was achieved on Zorbax C18, 50×4.6 mm, 5 μm column with methanol-0.1% formic acid as mobile phase with gradient elution. The flow rate was set at 1.0 mL min^−1. Detection was accomplished by a triple-quadrupole tandem mass spectrometer in multiple-reaction monitoring (MRM) scanning via electrospray ionization source, applied in the positive mode. The optimised mass transition ion-pairs for quantitation were m/z 379.999→125.000 for the compound 1 and m/z 376.165→165.00 for the ISD (Haloperidol). Calibration plots were linear over the range of 11.062 to 20594.820 ng/mL.
The data of plasma concentration to respective time points for the analyte Compound 1 were used for the pharmacokinetic analysis. Pharmacokinetic analysis was performed using non-compartmental analysis (NCA) module of Phoenix WinNonlin 6.3 software to determine the following pharmacokinetic parameters: • Cmax • Tmax • AUC0-t • AUC0-∞ • T1/2 • MRT […]

[3] = after 1st milling (air jet mill)
[4] = after 2nd milling (air jet mill)
[5] = rabbit, 25 mg/kg, enteric coated capsule with MgO, 25 mg/kg b.w. oral single dose, rabbit plasma (Example 9)
[6] = rabbit, 25 mg/kg, enteric coated capsule with mannitol, 25 mg/kg b.w. oral single dose, rabbit plasma (Example 10)
[7] = rabbit, 53 mg/kg, enteric coated capsule with MgO, 53 mg/kg b.w. (equivalent to 50 mg/kg Compound 1) oral single dose, rabbit plasma (Example 11)
[8] = rabbit, 90 mg/kg, enteric coated capsule, 90 mg/kg b.w. oral single dose, rabbit plasma (Examples 5, 6, 7)
[9] = rabbit, 90 mg/kg, non-coated capsule, 90 mg/kg b.w. oral single dose, rabbit plasma (Examples 2, 3, 4)

Structure (SMILES): O=C(Nc1nc(=O)n(Cc2ccc(Cl)cc2)s1)c1ccc(Cl)cc1.[Na] [Compound 2, 4-chloro-N-[2-[(4-chlorophenyl)methyl]-3-oxo-1,2,4-thiadiazol-5-yl]benzamide sodium salt]
- Particle size distribution D10 [1, 3]: 0.508 μm
- Particle size distribution D50 [1, 3]: 3.58 μm
- Particle size distribution D90 [1, 3]: 11.5 μm
- Particle size distribution D100 [1, 3]: 31.1 μm
- Particle size distribution D10 [1, 4]: 0.414 μm
- Particle size distribution D50 [1, 4]: 2.70 μm
- Particle size distribution D90 [1, 4]: 8.29 μm
- Particle size distribution D100 [1, 4]: 24.0 μm
- Particle size distribution D10 ([1]; before milling): 1.11 μm
- Particle size distribution D50 ([1]; before milling): 7.62 μm
- Particle size distribution D90 ([1]; before milling): 31.7 μm
- Particle size distribution D100 ([1]; before milling): 185 μm
- Plasma concentration, mean ([2]; 0.00 h, enteric coated capsule, rabbit): 0.000 ng/mL
- Plasma concentration, mean ([2]; 0.00 h, non-coated capsule, rabbit): 0.000 ng/mL
- Plasma concentration, mean ([2]; 0.16 h, enteric coated capsule, rabbit): 0.000 ng/mL
- Plasma concentration, mean ([2]; 0.16 h, non-coated capsule, rabbit): 0.000 ng/mL
- Plasma concentration, mean ([2]; 0.25 h, enteric coated capsule, rabbit): 0.000 ng/mL
- Plasma concentration, mean ([2]; 0.25 h, non-coated capsule, rabbit): 51.798 ng/mL
- Plasma concentration, mean ([2]; 0.50 h, enteric coated capsule, rabbit): 0.000 ng/mL
- Plasma concentration, mean ([2]; 0.50 h, non-coated capsule, rabbit): 206.386 ng/mL
- Plasma concentration, mean ([2]; 1.00 h, enteric coated capsule, rabbit): 9.027 ng/mL
- Plasma concentration, mean ([2]; 1.00 h, non-coated capsule, rabbit): 594.725 ng/mL
- Plasma concentration, mean ([2]; 2.00 h, enteric coated capsule, rabbit): 13.276 ng/mL
- Plasma concentration, mean ([2]; 2.00 h, non-coated capsule, rabbit): 1377.183 ng/mL
- Plasma concentration, mean ([2]; 4.00 h, enteric coated capsule, rabbit): 624.216 ng/mL
- Plasma concentration, mean ([2]; 4.00 h, non-coated capsule, rabbit): 15776.855 ng/mL
- Plasma concentration, mean ([2]; 6.00 h, enteric coated capsule, rabbit): 11866.638 ng/mL
- Plasma concentration, mean ([2]; 6.00 h, non-coated capsule, rabbit): 46144.063 ng/mL
- Plasma concentration, mean ([2]; 8.00 h, enteric coated capsule, rabbit): 18413.782 ng/mL
- Plasma concentration, mean ([2]; 8.00 h, non-coated capsule, rabbit): 71215.612 ng/mL
- Plasma concentration, mean ([2]; 24.00 h, enteric coated capsule, rabbit): 99879.409 ng/mL
- Plasma concentration, mean ([2]; 24.00 h, non-coated capsule, rabbit): 98809.233 ng/mL
- Plasma concentration, mean ([2]; 48.00 h, enteric coated capsule, rabbit): 101178.612 ng/mL
- Plasma concentration, mean ([2]; 48.00 h, non-coated capsule, rabbit): 93029.388 ng/mL
- Plasma concentration, mean ([2]; 72.00 h, enteric coated capsule, rabbit): 90966.319 ng/mL
- Plasma concentration, mean ([2]; 72.00 h, non-coated capsule, rabbit): 84071.553 ng/mL
- improvement in systemic exposure compared with the milled free base active ingredient ([2]; dry milled, capsules, 90 mg/kg oral, rabbit): greatest improvements
- increase in the systemic exposure compared to a standard suspension of the active ingredient (example 8) ([2]; dry milled, non-coated or enteric-coated capsules, 90 mg/kg oral, rabbit): up to six-fold
- systemic exposure when formulated together with an alkaline excipient ([2]; enteric coated capsule with MgO, 53 mg/kg oral, rabbit (Example 11)): significant amount of systemic exposure
- AUCextrap ([2]; enteric coated capsule, 90 mg/kg b.w. oral single dose, rabbit plasma (Examples 5, 6, 7)): 88.81 ± 3.497%
- systemic exposure when formulated with an alkaline excipient in comparison with formulation in the absence of an alkaline excipient ([2]; enteric coated capsules, 25 mg/kg oral, rabbit, Example 9 (MgO) vs Example 10 (mannitol)): increase
- Cmax [2, 5]: 49600 ± 4800 ng/mL
- MRT last [2, 5]: 27.67 ± 0.11 h
- Tmax [2, 5]: 24 h
- Cmax [2, 6]: 47400 ± 7060 ng/mL
- MRT last [2, 6]: 30 ± 1.73 h
- Tmax [2, 6]: 32 ± 13.9 h
- AUC(0-t) [2, 7]: 8930 ± 1190 µg·h/mL
- Cmax [2, 7]: 153000 ± 24300 ng/mL
- MRT last [2, 7]: 40.9 ± 1.43 h
- AUC(0-inf) [2, 8]: 55700 ± 22700 µg·h/mL
- AUC(0-t) [2, 8]: 5710 ± 1140 µg·h/mL
- Cmax [2, 8]: 101000 ± 17000 ng/mL
- MRT last [2, 8]: 43 ± 1.59 h
- Tmax [2, 8]: 32 ± 13.9 h
- half-life [2, 8]: 368 ± 109 h
- AUC(0-inf) [2, 9]: 38100 ± 34700 µg·h/mL
- AUC(0-t) [2, 9]: 5980 ± 2270 µg·h/mL
- Cmax [2, 9]: 99000 ± 34600 ng/mL
- MRT last [2, 9]: 38.8 ± 1.2 h
- Tmax [2, 9]: 32 ± 13.9 h
- half-life [2, 9]: 227 ± 140 h
- AUCextrap ([2]; non-coated capsule, 90 mg/kg b.w. oral single dose, rabbit plasma (Examples 2, 3, 4)): 79.01 ± 8.87%
